One compound from ChEMBL document CHEMBL4118122, “Identification and biological evaluation of thiazole-based inverse agonists of RORγt” (Bioorg Med Chem Lett, 2018) can be followed below.

pIC50, pKd: −log10 of the molar value. A value given as a limit tells only on which side of the number the result lay.

Data set [1] concerns the target T1, Nuclear receptor ROR-beta (Homo sapiens, UniProt Q92753).
T1 sequence (Q92753 whole entry): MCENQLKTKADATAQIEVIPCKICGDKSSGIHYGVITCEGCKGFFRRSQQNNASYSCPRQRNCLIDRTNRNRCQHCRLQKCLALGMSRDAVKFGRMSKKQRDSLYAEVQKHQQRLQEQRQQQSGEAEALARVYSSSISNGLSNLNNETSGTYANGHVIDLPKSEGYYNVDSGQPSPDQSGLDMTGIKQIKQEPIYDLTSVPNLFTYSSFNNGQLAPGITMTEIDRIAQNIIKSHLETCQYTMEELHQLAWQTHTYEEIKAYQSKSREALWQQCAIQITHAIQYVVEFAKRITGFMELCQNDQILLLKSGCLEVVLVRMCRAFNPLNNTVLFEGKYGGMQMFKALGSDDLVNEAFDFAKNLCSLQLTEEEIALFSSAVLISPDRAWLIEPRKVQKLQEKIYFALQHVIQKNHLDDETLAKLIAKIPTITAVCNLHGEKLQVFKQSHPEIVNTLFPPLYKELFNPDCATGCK
The experiment in a line: Binding affinity to recombinant human RORbeta LBD (201 to 452 residues) expressed in Escherichia coli BL21 (DE3) GOLD by 1,8-ANS dye-based thermofluor assay. (In general: Differential scanning fluorimetry follows unfolding on heating by fluorescence.)

Data set [2] addresses T1, Nuclear receptor ROR-beta. The data set is described as follows: Inverse agonist activity at human GAL4 DBD-fused RORbeta LBD (201 to 452 residues) expressed in HEK293T cells assessed as reduction in ROR mediated transcriptional activity after 24 hrs by dual glo luciferase reporter gene assay. Type of data set: cell-based. (In general: A reporter such as luciferase makes a cellular process visible.)

Data set [3] addresses Type-1 angiotensin II receptor (Homo sapiens) (UniProt P30556). The experiment in a line: Displacement of [125I][Sar1,Ile8]-AT-II from human recombinant AT1 receptor at 10 uM after 120 mins by scintillation counting analysis relative to control.
A further data set deals with Mu-type opioid receptor (Homo sapiens, UniProt P35372). The data set is described as follows: Displacement of [3H]DAMGO from human recombinant mu receptor at 10 uM after 120 mins by scintillation counting analysis relative to control.
Sequence of Mu-type opioid receptor (P35372 whole entry): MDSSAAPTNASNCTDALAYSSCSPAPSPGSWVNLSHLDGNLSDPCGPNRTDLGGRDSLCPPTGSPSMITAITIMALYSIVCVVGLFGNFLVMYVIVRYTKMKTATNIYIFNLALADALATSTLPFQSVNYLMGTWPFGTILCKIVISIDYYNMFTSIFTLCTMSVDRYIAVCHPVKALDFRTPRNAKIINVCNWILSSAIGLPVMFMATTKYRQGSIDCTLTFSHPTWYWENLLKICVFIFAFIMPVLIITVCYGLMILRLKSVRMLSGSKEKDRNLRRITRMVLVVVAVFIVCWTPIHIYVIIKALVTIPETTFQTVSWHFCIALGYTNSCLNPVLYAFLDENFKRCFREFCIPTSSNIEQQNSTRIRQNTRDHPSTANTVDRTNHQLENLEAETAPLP
Data set [4] addresses 5-hydroxytryptamine receptor 5A (Homo sapiens, UniProt P47898). The experiment in a line: Displacement of [3H]LSD from human recombinant 5-HT5a receptor at 10 uM after 120 mins by scintillation counting analysis relative to control. For orientation: In a radioligand displacement assay an active substance lowers the binding of a labelled ligand.
In data set [5] the target is Sodium-dependent noradrenaline transporter (Homo sapiens, UniProt P23975). The experiment in a line: Displacement of [3H]nisoxetine from recombinant human norepinephrine transporter at 10 uM after 120 mins by scintillation counting analysis relative to control.
Sequence of Sodium-dependent noradrenaline transporter (P23975 whole entry): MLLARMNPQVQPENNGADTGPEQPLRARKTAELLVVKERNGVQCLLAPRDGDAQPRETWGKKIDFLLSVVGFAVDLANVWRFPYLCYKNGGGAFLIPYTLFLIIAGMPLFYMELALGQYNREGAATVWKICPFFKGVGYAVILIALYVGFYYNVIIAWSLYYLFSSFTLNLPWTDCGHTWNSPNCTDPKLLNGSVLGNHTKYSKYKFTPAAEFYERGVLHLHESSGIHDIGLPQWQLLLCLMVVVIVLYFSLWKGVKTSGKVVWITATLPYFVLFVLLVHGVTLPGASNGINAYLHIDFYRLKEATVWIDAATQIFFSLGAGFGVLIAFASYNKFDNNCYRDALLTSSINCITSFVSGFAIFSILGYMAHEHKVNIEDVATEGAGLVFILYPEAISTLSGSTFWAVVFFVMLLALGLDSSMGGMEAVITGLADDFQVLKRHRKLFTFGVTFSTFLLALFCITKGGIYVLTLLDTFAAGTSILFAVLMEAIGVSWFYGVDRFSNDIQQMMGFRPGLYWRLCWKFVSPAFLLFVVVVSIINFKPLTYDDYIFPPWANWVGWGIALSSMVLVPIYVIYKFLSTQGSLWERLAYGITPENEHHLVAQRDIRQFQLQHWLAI
Data set [6] deals with 5-hydroxytryptamine receptor 1B (Rattus norvegicus) (UniProt P28564). The experiment in a line: Displacement of [125I]-CYP from rat brain 5-HT1B receptor at 1 uM after 120 mins by scintillation counting analysis relative to control.
Sequence of 5-hydroxytryptamine receptor 1B (Rattus norvegicus) (P28564 whole entry): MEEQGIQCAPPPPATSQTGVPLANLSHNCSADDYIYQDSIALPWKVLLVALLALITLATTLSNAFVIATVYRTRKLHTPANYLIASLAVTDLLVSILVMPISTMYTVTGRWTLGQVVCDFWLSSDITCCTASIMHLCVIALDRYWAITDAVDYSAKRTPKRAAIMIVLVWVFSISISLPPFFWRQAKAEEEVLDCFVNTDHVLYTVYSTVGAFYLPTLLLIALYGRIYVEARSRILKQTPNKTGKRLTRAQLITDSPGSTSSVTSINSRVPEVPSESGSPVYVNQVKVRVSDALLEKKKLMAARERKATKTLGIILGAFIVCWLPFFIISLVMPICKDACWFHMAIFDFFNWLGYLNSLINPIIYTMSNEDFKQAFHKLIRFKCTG
The species entered for the next data set is Homo sapiens. The experiment in a line: Binding affinity to GABA-gated chloride channel (unknown origin) at 1 uM by antagonist radioligand binding assay relative to control.
Data set [7] concerns the target Activin receptor type-1B (Homo sapiens) (UniProt P36896). The experiment in a line: Inhibition of recombinant GST-tagged human ACVR1B catalytic domain (150 to 505 residues) expressed in baculovirus expression system at 10 uM in presence of ATP relative to control.
Data set [8] addresses Cyclin-dependent kinase 1/cyclin B1 (Homo sapiens) (UniProt P06493+P14635). The experiment in a line: Inhibition of recombinant full length His-tagged human CDK1/Cyclin B expressed in baculovirus expression system at 10 uM in presence of ATP relative to control.
For data set [9], the target named is Receptor-type tyrosine-protein kinase FLT3 (Homo sapiens) (UniProt P36888). The data set is described as follows: Inhibition of recombinant His-tagged human FLT3 (564 to 958 residues) cytoplasmic domain expressed in baculovirus expression system at 10 uM in presence of ATP relative to control.
Sequence of Receptor-type tyrosine-protein kinase FLT3 (Homo sapiens) (P36888 whole entry, the tested form may be a part): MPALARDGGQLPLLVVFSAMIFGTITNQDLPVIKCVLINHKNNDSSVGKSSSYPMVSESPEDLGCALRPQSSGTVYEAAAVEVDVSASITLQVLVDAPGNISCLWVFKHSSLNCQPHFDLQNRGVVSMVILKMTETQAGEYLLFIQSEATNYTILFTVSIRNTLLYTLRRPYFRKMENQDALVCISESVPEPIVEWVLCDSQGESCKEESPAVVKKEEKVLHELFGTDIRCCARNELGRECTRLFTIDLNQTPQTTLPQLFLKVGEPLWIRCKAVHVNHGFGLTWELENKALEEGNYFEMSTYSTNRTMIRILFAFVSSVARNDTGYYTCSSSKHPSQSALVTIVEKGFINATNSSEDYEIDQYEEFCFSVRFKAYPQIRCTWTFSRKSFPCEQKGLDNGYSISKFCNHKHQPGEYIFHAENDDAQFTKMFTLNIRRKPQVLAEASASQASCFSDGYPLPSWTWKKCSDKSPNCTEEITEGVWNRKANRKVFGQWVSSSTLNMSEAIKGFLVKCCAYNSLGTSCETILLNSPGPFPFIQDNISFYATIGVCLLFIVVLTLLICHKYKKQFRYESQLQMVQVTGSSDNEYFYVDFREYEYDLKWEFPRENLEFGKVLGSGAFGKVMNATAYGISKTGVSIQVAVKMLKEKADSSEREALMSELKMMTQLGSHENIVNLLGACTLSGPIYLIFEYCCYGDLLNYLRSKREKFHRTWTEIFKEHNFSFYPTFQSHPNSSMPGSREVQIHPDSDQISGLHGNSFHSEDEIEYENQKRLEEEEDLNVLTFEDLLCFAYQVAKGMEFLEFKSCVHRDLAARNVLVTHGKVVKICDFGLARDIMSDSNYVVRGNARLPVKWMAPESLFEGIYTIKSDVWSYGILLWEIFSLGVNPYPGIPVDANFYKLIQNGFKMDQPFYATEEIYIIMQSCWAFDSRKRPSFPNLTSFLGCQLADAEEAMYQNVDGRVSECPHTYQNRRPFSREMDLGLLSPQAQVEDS
A further data set concerns the target T2, PXR (NR1I2) (Homo sapiens, UniProt O75469).
T2 sequence (O75469 whole entry): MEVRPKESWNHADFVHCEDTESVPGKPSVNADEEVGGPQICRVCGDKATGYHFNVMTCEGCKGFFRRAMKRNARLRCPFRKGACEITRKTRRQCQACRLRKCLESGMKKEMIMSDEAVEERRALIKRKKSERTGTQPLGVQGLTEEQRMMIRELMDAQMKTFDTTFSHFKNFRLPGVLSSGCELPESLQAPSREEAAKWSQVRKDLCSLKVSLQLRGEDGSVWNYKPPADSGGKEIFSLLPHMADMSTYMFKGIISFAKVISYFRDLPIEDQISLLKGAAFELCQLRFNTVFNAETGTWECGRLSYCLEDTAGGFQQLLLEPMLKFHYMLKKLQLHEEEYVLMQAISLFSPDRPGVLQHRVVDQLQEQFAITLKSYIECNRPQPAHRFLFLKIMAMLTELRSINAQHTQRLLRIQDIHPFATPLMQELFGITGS
The data set is described as follows: […] at PXR LBD (unknown origin) expressed in HEK293 cells […] at 10 uM after 16 hrs by luciferase reporter gene assay relative to rifampicin. The note with it: HEK293 cells expressing PXR LBD, read-out: Efficacy. It is filed as ADME, cell-based.

For another data set, the target named is T3, Cytochrome P450 2C8 (Homo sapiens, UniProt P10632).
T3 sequence (P10632 whole entry): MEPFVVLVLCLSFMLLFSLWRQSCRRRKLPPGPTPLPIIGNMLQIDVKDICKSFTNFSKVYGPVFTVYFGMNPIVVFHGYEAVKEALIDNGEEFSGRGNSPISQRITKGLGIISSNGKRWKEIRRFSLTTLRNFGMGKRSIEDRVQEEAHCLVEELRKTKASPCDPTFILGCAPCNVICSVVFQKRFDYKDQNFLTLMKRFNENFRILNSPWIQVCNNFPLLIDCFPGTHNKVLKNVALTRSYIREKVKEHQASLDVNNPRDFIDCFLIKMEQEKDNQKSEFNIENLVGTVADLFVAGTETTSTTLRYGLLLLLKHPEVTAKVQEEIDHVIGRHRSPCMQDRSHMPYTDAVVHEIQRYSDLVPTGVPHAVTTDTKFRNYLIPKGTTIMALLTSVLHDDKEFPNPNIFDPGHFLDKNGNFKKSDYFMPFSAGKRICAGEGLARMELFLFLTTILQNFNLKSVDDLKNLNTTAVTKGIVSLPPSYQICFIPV
The data set is described as follows: Inhibition of CYP2C8 (unknown origin). It is filed as ADME.

Data set [10] is described as follows: AUC (0 to infinity) in Sprague-Dawley rat at 5 mg/kg, po. Also noted: dose 5 mg/kg, route oral, time infinity. Type of data set: ADME, organism-based. The note with it: in vivo.

Sequence of Activin receptor type-1B (Homo sapiens) (P36896 whole entry, the tested form may be a part): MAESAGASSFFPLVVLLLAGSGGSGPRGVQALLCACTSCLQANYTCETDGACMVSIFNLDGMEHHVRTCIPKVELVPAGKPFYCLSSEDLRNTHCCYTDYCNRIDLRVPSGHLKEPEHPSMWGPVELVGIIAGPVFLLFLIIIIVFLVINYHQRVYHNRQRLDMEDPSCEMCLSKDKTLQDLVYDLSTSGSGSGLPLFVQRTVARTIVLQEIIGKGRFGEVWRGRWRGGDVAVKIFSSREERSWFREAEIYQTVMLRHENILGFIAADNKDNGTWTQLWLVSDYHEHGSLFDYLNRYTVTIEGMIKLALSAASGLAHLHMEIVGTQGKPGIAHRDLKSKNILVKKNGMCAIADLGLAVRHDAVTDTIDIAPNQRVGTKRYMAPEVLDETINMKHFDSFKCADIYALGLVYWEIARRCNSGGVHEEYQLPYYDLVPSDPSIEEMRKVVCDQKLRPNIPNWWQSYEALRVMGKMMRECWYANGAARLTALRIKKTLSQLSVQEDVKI
Sequence of 5-hydroxytryptamine receptor 5A (P47898 whole entry): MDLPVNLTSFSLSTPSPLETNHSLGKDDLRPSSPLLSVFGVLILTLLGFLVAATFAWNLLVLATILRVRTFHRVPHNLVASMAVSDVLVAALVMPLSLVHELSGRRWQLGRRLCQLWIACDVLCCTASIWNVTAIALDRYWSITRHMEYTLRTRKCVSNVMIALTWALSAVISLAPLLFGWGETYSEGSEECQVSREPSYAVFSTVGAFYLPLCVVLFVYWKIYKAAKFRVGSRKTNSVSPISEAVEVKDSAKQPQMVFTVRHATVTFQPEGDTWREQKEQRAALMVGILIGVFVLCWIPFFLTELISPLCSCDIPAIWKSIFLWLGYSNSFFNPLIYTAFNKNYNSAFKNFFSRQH
Sequence of Type-1 angiotensin II receptor (Homo sapiens) (P30556 whole entry): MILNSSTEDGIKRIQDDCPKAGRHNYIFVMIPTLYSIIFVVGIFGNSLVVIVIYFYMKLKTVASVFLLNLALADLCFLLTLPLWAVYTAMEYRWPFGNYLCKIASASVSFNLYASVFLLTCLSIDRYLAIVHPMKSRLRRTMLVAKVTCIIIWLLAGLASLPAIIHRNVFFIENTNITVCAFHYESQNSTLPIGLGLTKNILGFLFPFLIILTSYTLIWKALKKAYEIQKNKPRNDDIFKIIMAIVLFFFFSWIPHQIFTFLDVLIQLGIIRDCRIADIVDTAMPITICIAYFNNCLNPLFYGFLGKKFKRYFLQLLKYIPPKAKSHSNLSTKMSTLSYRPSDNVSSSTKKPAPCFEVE
Sequence of Cyclin-dependent kinase 1/cyclin B1 (Homo sapiens) (P06493 whole entry, looked up, the tested form may be a part): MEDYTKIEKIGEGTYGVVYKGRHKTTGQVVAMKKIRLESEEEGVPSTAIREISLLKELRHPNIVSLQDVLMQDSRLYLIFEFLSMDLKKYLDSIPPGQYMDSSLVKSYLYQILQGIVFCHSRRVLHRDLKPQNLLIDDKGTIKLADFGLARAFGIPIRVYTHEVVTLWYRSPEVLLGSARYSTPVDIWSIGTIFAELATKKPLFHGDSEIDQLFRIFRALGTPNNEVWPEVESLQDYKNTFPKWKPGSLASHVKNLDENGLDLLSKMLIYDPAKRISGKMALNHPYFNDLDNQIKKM
Sequence of Cyclin-dependent kinase 1/cyclin B1 (Homo sapiens) (P14635 whole entry, looked up, the tested form may be a part): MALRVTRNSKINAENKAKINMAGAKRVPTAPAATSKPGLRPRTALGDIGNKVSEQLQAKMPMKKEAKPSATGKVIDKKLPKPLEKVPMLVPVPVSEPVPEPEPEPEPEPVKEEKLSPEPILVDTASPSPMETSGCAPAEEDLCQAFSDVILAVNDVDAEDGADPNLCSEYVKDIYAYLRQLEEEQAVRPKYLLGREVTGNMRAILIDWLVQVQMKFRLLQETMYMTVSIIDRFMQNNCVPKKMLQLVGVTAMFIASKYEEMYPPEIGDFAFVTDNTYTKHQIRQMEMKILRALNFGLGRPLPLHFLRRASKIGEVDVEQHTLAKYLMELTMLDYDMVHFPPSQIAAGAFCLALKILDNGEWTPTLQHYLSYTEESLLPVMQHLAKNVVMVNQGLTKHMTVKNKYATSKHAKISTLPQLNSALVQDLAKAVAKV

Consider `CC(C)(C)NS(=O)(=O)c1ccc(-c2sc(C(=O)N[C@H]3C[C@H](C(=O)O)C3)nc2CC2CCCCC2)c2ccccc12`, for which, in data set [1], the pKd was 6.13. The negative logarithm of the IC50 (pIC50) in data set [2] was 6.79. Also, the inhibition is below 10% in [3]; 12% on Mu-type opioid receptor; 85% in data set [4]; 27% in data set [5]; below 10% in [6]; 14% in the data set filed under Homo sapiens. The inhibition in [7] is -2%; in data set [8], -3%; in data set [9], 0%. The Emax at 16 h, 10 µM on PXR (NR1I2) was 195%. Moreover, the INH at Cytochrome P450 2C8 worked out at 3.8 µM. Also, the area under the curve AUC(0-inf) in [10] was determined as 328 ng·h/mL.

The term pKd denotes the negative decadic logarithm of the Kd, by convention in mol/L. In general, pIC50 refers to −log10 of the IC50, conventionally taken in molar units. The term inhibition denotes the change of the read-out against control, counted positive when it falls. In general, AUC(0-inf) refers to total exposure, with the tail of the curve extrapolated. The low end stands for low exposure, the high end for high exposure.
